Assay results as given in PubChem BioAssay AID2060888 (Molecular Pharmacology Branch, DTP, NCI, 2025).

Test system: 695427-040-R-J1-PDC complex spheroid viability
Experiment: Anticancer human tumor 695427-040-R-J1-PDC patient-derived colon adenocarcinoma cell line growth inhibition [RAS]
Details: for IC50: curve of first compound; for viability, T/C: stronger effect = lower value
Description: RAS pathway inhibitors in Combinations in Complex Spheroids
A high-throughput screen of multi-cell type tumor spheroids was designed to identify active combinations of RAS pathway inhibitors and targeted small molecules. Complex spheroids include a stromal component modeled by human endothelial cells (HUVEC) and fibroblasts modeled by human mesenchymal stem cells (MSCs). The concentration ranges selected for each drug and investigational agent were based upon clinically achievable concentrations if the clinical Cmax of the agent was known.
Compounds. The drugs and investigational agents: abemaciclib (NSC768073), cobimetinib (NSC768068), divarasib (GDC6063, NSC841802), docetaxel (NSC628503), GDC-1971 (RLY-1971, NSC841576), gemcitabine (NSC613327), inavolisib (NSC800729), ipatasertib (NSC767898), KB-0742 (NSC834161), MRTX-1133 (NSC836407), osimertinib (NSC779217), RMC-4630 (NSC839698), RMC-6236 (NSC851965), RMC-6291 (NSC852671), Ro-3306 (NSC812927), sapanisertib (NSC764658), SN-38 (NSC673596), staurosporine (NSC755774), SY5609 (NSC837396), and tovorafenib (DAY101, NSC766906), were obtained from the National Cancer Institute (NCI) Developmental Therapeutics Program Chemical Repository. The FDA-approved anticancer drug set is available from the NCI Developmental Therapeutics Program. […] The stock solutions were prepared in dimethyl sulfoxide (DMSO, Sigma-Aldrich, St. Louis, MO, cat. D2650) at 800-fold the tested concentration and stored at -70 degrees C prior to their use. All drugs and investigational agents were tested over a range starting from a high concentration at or near the clinical Cmax and decreasing in half-log increments. If the clinical Cmax for an agent had not been determined, the highest concentration tested was 10 microM.
Cell Culture. All cells were maintained in an incubator at 37 degrees C and 5% CO2 with 95% humidity. The PDC lines were cultured according to standard operating procedures established by the NCI PDMR. All PDCs were thawed and cultured in Matrigel-coated flasks prepared with a working solution of 1X Ham's F-12 nutrient mix, without supplementation (Invitrogen, Waltham, MA, cat. 11765054), 100 U/mL penicillin-streptomycin (Invitrogen, cat. 15140122), and 2.5% Matrigel (Corning Inc., Corning, NY, cat. 354248) for the first three passages. The 362531-283-R-J2-PDC and 782815-120-R-J1-PDC lines were cultured in 6C/Colon 1B media, which includes advanced DMEM/F-12 (Thermo Fisher Scientific, cat. 12634028), 10 mM HEPES (Thermo Fisher Scientific, cat. 15630080), 1X GlutaMAX supplement (Thermo Fisher Scientific, cat. 35050061), 0.1 mg/mL primocin (InvivoGen, San Diego, CA, cat. ant-pm-2), 10% defined fetal bovine serum, heat inactivated (HyClone Laboratories Inc., Logan, UT, cat. SH30070.03HI), 50% L-WRN conditioned media (ATCC, cat. CRL-3276), 1.25 mM N-Acetyl-L-cysteine (Sigma-Aldrich, cat. A9165), 10 mM nicotinamide (Sigma-Aldrich, cat. N0636), 1X B-27 supplement (Thermo Fisher Scientific, cat. 17504044), 1X N-2 supplement (Thermo Fisher Scientific, cat. 17502048), 50 ng/mL human EGF (Thermo Fisher Scientific, cat. PHG0311), and 10 microM Y-27632 dihydrochloride (Tocris Bioscience, cat. 1254). The K12877-001-R-J1-PDC line was cultured in 6I media, which includes all 6C/Colon 1B media plus 10 ng/mL human FGF-10 (PeproTech, cat. 100-26), 1 ng/mL human FGF-2 (PeproTech, cat. 100-18B), 1 µM prostaglandin E2 (Tocris Bioscience, cat. 2296), […] hydrocortisone (Sigma-Aldrich, cat. H4001), and […] bovine insulin (Sigma-Aldrich, cat. I6634). The K86415-001-R-J1-PDC line was cultured in 6D media, which includes all 6C/Colon 1B media components minus the L-WRN conditioned media. The 485176-168-R4-J1-PDC was cultured in PANC media, which includes all 6C/Colon 1B media plus 100 ng/mL human FGF-10 (PeproTech, cat. 100-26), 500 nM SB-431542 (Selleckchem, cat. S1067), and 10 nM gastrin (Tocris Bioscience, cat. 3006). […]

[1] = second compound 0.0316 µM, first compound 0.0316 µM
[2] = second compound 0.0316 µM, first compound 0.1 µM
[3] = second compound 0.0316 µM, first compound 0.316 µM
[4] = second compound 0.0316 µM, first compound 1 µM
[5] = second compound 0.1 µM, first compound 0.0316 µM
[6] = second compound 0.1 µM, first compound 0.1 µM
[7] = second compound 0.1 µM, first compound 0.316 µM
[8] = second compound 0.1 µM, first compound 1 µM
[9] = second compound 0.316 µM, first compound 0.0316 µM
[10] = second compound 0.316 µM, first compound 0.1 µM
[11] = second compound 0.316 µM, first compound 0.316 µM
[12] = second compound 0.316 µM, first compound 1 µM
[13] = second compound 1 µM, first compound 0.0316 µM
[14] = second compound 1 µM, first compound 0.1 µM
[15] = second compound 1 µM, first compound 0.316 µM
[16] = second compound 1 µM, first compound 1 µM
[17] = second compound 3.16 µM, first compound 0.0316 µM
[18] = second compound 3.16 µM, first compound 0.1 µM
[19] = second compound 3.16 µM, first compound 0.316 µM
[20] = second compound 3.16 µM, first compound 1 µM
[21] = second compound 10 µM, first compound 0.0316 µM
[22] = second compound 10 µM, first compound 0.1 µM
[23] = second compound 10 µM, first compound 0.316 µM
[24] = second compound 10 µM, first compound 1 µM
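Further: viability read after seven days of drug exposure.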
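Wherever viability, T/C is given: 100% = DMSO vehicle control viability.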

In the case of `CC(=O)OC12COC1CC(O)C1(C)C(=O)C(O)C3=C(C)C(OC(=O)C(O)C(NC(=O)OC(C)(C)C)c4ccccc4)CC(O)(C(OC(=O)c4ccccc4)C21)C3(C)C` (centres undefined) + C#Cc1c(F)ccc2cc(O)cc(-c3ncc4c(N5CC6CCC(C5)N6)nc(OCC56CCCN5CC(F)C6)nc4c3F)c12, the IC50 (second compound 0.0316 µM) is reported as over 10000 nM, the IC50 (second compound 0.1 µM) is reported as over 10000 nM and the IC50 (second compound 0.316 µM) is reported as over 10000 nM. It also gave an IC50 (second compound 1 µM) of over 10000 nM, an IC50 (second compound 3.16 µM) of under 31.6 nM and an IC50 (second compound 10 µM) of under 31.6 nM. The viability, T/C [1] was 67.3%, the viability, T/C [2] was 67% and the viability, T/C [3] was 69.9%. It also gave a viability, T/C [4] of 80.3%, a viability, T/C (second compound 0.0316 µM, first compound 3.16 µM) of 85.8% and a viability, T/C (second compound 0.0316 µM, first compound 10 µM) of 90.5%. It also gave a viability, T/C [5] of 66.9%, a viability, T/C [6] of 70.5% and a viability, T/C [7] of 66%. For the same compound, the viability, T/C [8] was 80%, the viability, T/C (second compound 0.1 µM, first compound 3.16 µM) was 89.1% and the viability, T/C (second compound 0.1 µM, first compound 10 µM) was 87.7%. It also gave a viability, T/C [9] of 70.7%, a viability, T/C [10] of 68% and a viability, T/C [11] of 64.8%. The viability, T/C [12] was 72.6%, the viability, T/C (second compound 0.316 µM, first compound 3.16 µM) was 76.8% and the viability, T/C (second compound 0.316 µM, first compound 10 µM) was 81.8%. For the same compound, the viability, T/C [13] was 59.5%, the viability, T/C [14] was 59.1% and the viability, T/C [15] was 59%. It also gave a viability, T/C [16] of 58.8%, a viability, T/C (second compound 1 µM, first compound 3.16 µM) of 67.3% and a viability, T/C (second compound 1 µM, first compound 10 µM) of 61%. It also gave a viability, T/C [17] of 47.6%, a viability, T/C [18] of 44.2% and a viability, T/C [19] of 42.4%. For the same compound, the viability, T/C [20] was 50.4%, the viability, T/C (second compound 3.16 µM, first compound 3.16 µM) was 49.7% and the viability, T/C (second compound 3.16 µM, first compound 10 µM) was 45.3%. The viability, T/C [21] was 32.3%, the viability, T/C [22] was 30.4% and the viability, T/C [23] was 25.2%. For the same compound, the viability, T/C [24] was 32%, the viability, T/C (second compound 10 µM, first compound 3.16 µM) was 29.6% and the viability, T/C (second compound 10 µM, first compound 10 µM) was 30.1%.

`Nc1ccn(C2OC(CO)C(O)C2(F)F)c(=O)n1` (centres undefined) + C#Cc1c(F)ccc2cc(O)cc(-c3ncc4c(N5CC6CCC(C5)N6)nc(OCC56CCCN5CC(F)C6)nc4c3F)c12 showed an IC50 (second compound 0.0316 µM) of over 1000 nM, an IC50 (second compound 0.1 µM) of over 1000 nM and an IC50 (second compound 0.316 µM) of over 1000 nM. For the same compound, the IC50 (second compound 1 µM) was over 1000 nM, the IC50 (second compound 3.16 µM) was 75.7 nM and the IC50 (second compound 10 µM) was under 3.16 nM. It also gave a viability, T/C (second compound 0.0316 µM, first compound 0.00316 µM) of 83.8%, a viability, T/C (second compound 0.0316 µM, first compound 0.01 µM) of 82.2% and a viability, T/C [1] of 75%. It also gave a viability, T/C [2] of 75.7%, a viability, T/C [3] of 76.8% and a viability, T/C [4] of 70.8%. It also gave a viability, T/C (second compound 0.1 µM, first compound 0.00316 µM) of 87.7%, a viability, T/C (second compound 0.1 µM, first compound 0.01 µM) of 75.5% and a viability, T/C [5] of 81.9%. For the same compound, the viability, T/C [6] was 68.8%, the viability, T/C [7] was 78.4% and the viability, T/C [8] was 67.2%. The viability, T/C (second compound 0.316 µM, first compound 0.00316 µM) was 85.2%, the viability, T/C (second compound 0.316 µM, first compound 0.01 µM) was 79.4% and the viability, T/C [9] was 66.7%. It also gave a viability, T/C [10] of 72.3%, a viability, T/C [11] of 67% and a viability, T/C [12] of 60.5%. It also gave a viability, T/C (second compound 1 µM, first compound 0.00316 µM) of 68%, a viability, T/C (second compound 1 µM, first compound 0.01 µM) of 63.4% and a viability, T/C [13] of 69.5%. The viability, T/C [14] was 59.6%, the viability, T/C [15] was 59.2% and the viability, T/C [16] was 55.7%. The viability, T/C (second compound 3.16 µM, first compound 0.00316 µM) was 57.9%, the viability, T/C (second compound 3.16 µM, first compound 0.01 µM) was 62.4% and the viability, T/C [17] was 48.9%. The viability, T/C [18] was 45.4%, the viability, T/C [19] was 50.8% and the viability, T/C [20] was 44.7%. The viability, T/C (second compound 10 µM, first compound 0.00316 µM) was 37.3%, the viability, T/C (second compound 10 µM, first compound 0.01 µM) was 34.8% and the viability, T/C [21] was 33.2%. It also gave a viability, T/C [22] of 36.4%, a viability, T/C [23] of 33.4% and a viability, T/C [24] of 33%.
